From patent US20030215352A1, “Method of controlling microbial contamination” (Church & Dwight Co., Inc., priority 2002, published 2003)
Read-outs that look alike come from different tables or passages of the source.

Legend:
Settings in all cases: 25° C.
C. albicans = tested on: C. albicans
Procedure: (§1) Absorbent products, of 2 in.×2 in., weighing about 1 gram each, and being of identical construction except that 0%, 2%, 4%, 6%, 8%, 10% and 12% (per gram of product) of sodium bicarbonate was incorporated therein are used for this example. […] Two ml of sterile water was added to each product. Each product was then inoculated with 0.1 ml of one of a bacterium or fungus selected from S. aureus (6.9×10^5 CFU/ml), E. coli (5.4×10^5 CFU/ml), P. aeruginosa (6.9×10^5 CFU/ml), and C. albicans (5×10^5 CFU/ml). Each inoculated product was incubated at 25° C. and kept moist in a petri dish. Microbial numbers were determined on days 7 and 14 Microbial numbers were determined by removing the product from the petri dish and placed in a bag with 9 ml of neutralizer broth, mixed and plated on Leethan Agar. These plates were then incubated for 48-72 hours at 30° C. and colonies on the plates were counted.

E. coli = tested on: E. coli
Procedure: as §1

P. aeruginosa = tested on: P. aeruginosa
Procedure: as §1

S. aureus = tested on: S. aureus
Procedure: as §1

[1] = Day 7, 2% sodium bicarbonate in absorbent product
[2] = Day 7, 4% sodium bicarbonate in absorbent product
[3] = Day 7, 6% sodium bicarbonate in absorbent product
[4] = Day 7, 8% sodium bicarbonate in absorbent product
[5] = Day 7, 10% sodium bicarbonate in absorbent product
[6] = Day 7, 12% sodium bicarbonate in absorbent product
[7] = Day 14, 2% sodium bicarbonate in absorbent product
[8] = Day 14, 4% sodium bicarbonate in absorbent product
[9] = Day 14, 6% sodium bicarbonate in absorbent product
[10] = Day 14, 8% sodium bicarbonate in absorbent product
[11] = Day 14, 10% sodium bicarbonate in absorbent product
[12] = Day 14, 12% sodium bicarbonate in absorbent product

With O=C([O-])O.[Na+] [Sodium Bicarbonate, sodium bicarbonate] the “Colony Forming Units/ml C. albicans” value (C. albicans; [1]) was 1,800 Colony Forming Units/ml, the “Colony Forming Units/ml C. albicans” value (C. albicans; [2]) was 5 Colony Forming Units/ml and the “Colony Forming Units/ml C. albicans” value (C. albicans; [3]) was <10 Colony Forming Units/ml. For the same molecule, the “Colony Forming Units/ml C. albicans” value (C. albicans; [4]) was 70 Colony Forming Units/ml, the “Colony Forming Units/ml C. albicans” value (C. albicans; [5]) was <10 Colony Forming Units/ml and the “Colony Forming Units/ml C. albicans” value (C. albicans; [6]) was 30 Colony Forming Units/ml. The “Colony Forming Units/ml C. albicans” value (C. albicans; [7]) was 15 Colony Forming Units/ml, the “Colony Forming Units/ml C. albicans” value (C. albicans; [8]) was 450 Colony Forming Units/ml and the “Colony Forming Units/ml C. albicans” value (C. albicans; [9]) was <10 Colony Forming Units/ml. The “Colony Forming Units/ml C. albicans” value (C. albicans; [10]) was 3000 Colony Forming Units/ml, the “Colony Forming Units/ml C. albicans” value (C. albicans; [11]) was <10 Colony Forming Units/ml and the “Colony Forming Units/ml C. albicans” value (C. albicans; [12]) was <10 Colony Forming Units/ml. For the same molecule, the “Colony Forming Units/ml E. coli” value (E. coli; [1]) was <10 Colony Forming Units/ml, the “Colony Forming Units/ml E. coli” value (E. coli; [2]) was <10 Colony Forming Units/ml and the “Colony Forming Units/ml E. coli” value (E. coli; [3]) was <10 Colony Forming Units/ml. For the same molecule, the “Colony Forming Units/ml E. coli” value (E. coli; [4]) was <10 Colony Forming Units/ml, the “Colony Forming Units/ml E. coli” value (E. coli; [5]) was <10 Colony Forming Units/ml and the “Colony Forming Units/ml E. coli” value (E. coli; [6]) was <10 Colony Forming Units/ml. For the same molecule, the “Colony Forming Units/ml E. coli” value (E. coli; [7]) was <10 Colony Forming Units/ml, the “Colony Forming Units/ml E. coli” value (E. coli; [8]) was <10 Colony Forming Units/ml and the “Colony Forming Units/ml E. coli” value (E. coli; [9]) was <10 Colony Forming Units/ml. The “Colony Forming Units/ml E. coli” value (E. coli; [10]) was <10 Colony Forming Units/ml, the “Colony Forming Units/ml E. coli” value (E. coli; [11]) was <10 Colony Forming Units/ml and the “Colony Forming Units/ml E. coli” value (E. coli; [12]) was <10 Colony Forming Units/ml. The “Colony Forming Units/ml P. aeruginosa” value (P. aeruginosa; [1]) was <10 Colony Forming Units/ml, the “Colony Forming Units/ml P. aeruginosa” value (P. aeruginosa; [2]) was <10 Colony Forming Units/ml and the “Colony Forming Units/ml P. aeruginosa” value (P. aeruginosa; [3]) was 50 Colony Forming Units/ml. The “Colony Forming Units/ml P. aeruginosa” value (P. aeruginosa; [4]) was 150 Colony Forming Units/ml, the “Colony Forming Units/ml P. aeruginosa” value (P. aeruginosa; [5]) was <10 Colony Forming Units/ml and the “Colony Forming Units/ml P. aeruginosa” value (P. aeruginosa; [6]) was <10 Colony Forming Units/ml. For the same molecule, the “Colony Forming Units/ml P. aeruginosa” value (P. aeruginosa; [7]) was 15 Colony Forming Units/ml, the “Colony Forming Units/ml P. aeruginosa” value (P. aeruginosa; [8]) was <10 Colony Forming Units/ml and the “Colony Forming Units/ml P. aeruginosa” value (P. aeruginosa; [9]) was <10 Colony Forming Units/ml. The “Colony Forming Units/ml P. aeruginosa” value (P. aeruginosa; [10]) was <10 Colony Forming Units/ml, the “Colony Forming Units/ml P. aeruginosa” value (P. aeruginosa; [11]) was <10 Colony Forming Units/ml and the “Colony Forming Units/ml P. aeruginosa” value (P. aeruginosa; [12]) was <10 Colony Forming Units/ml. The “Colony Forming Units/ml S. aureus” value (S. aureus; [1]) was <10 Colony Forming Units/ml, the “Colony Forming Units/ml S. aureus” value (S. aureus; [2]) was <10 Colony Forming Units/ml and the “Colony Forming Units/ml S. aureus” value (S. aureus; [3]) was <10 Colony Forming Units/ml. For the same molecule, the “Colony Forming Units/ml S. aureus” value (S. aureus; [4]) was <10 Colony Forming Units/ml, the “Colony Forming Units/ml S. aureus” value (S. aureus; [5]) was 5 Colony Forming Units/ml and the “Colony Forming Units/ml S. aureus” value (S. aureus; [6]) was <10 Colony Forming Units/ml. The “Colony Forming Units/ml S. aureus” value (S. aureus; [7]) was <10 Colony Forming Units/ml, the “Colony Forming Units/ml S. aureus” value (S. aureus; [8]) was <10 Colony Forming Units/ml and the “Colony Forming Units/ml S. aureus” value (S. aureus; [9]) was <10 Colony Forming Units/ml. For the same molecule, the “Colony Forming Units/ml S. aureus” value (S. aureus; [10]) was 10 Colony Forming Units/ml, the “Colony Forming Units/ml S. aureus” value (S. aureus; [11]) was <10 Colony Forming Units/ml and the “Colony Forming Units/ml S. aureus” value (S. aureus; [12]) was <10 Colony Forming Units/ml.
